{"source": "patent US20050159377A1", "about": "“Methods of modulating activity of prokaryotic ribosomes” (SmithKline Beecham Corporation, priority 2000, published 2005)", "origin": "cited, not measured here", "system": "50S ribosomal subunit"}
{"smiles": "O=C(N[C@H](CO)[C@H](O)c1ccc([N+](=O)[O-])cc1)C(Cl)Cl", "note": "[chloramphenicol]", "values": [{"measurement": "competition with pleuromutilin for binding", "result": "weakly compete"}]}
